Measured values reported in article PMC8053501 (Diabetes, Metabolic Syndrome and Obesity: Targets and …, 2021).
“Also recorded” adds a separate entry of the source. Read-outs that look alike come from different tables or passages of the source. Blank lines part the entries; values can stand above or below the compound they belong to.

Columns and labels:
[1] = system: diabetes mellitus patients; test: Acute kidney injury; type: in vivo, human; conditions: for Association with AKI, Unadjusted (95% CI) / Association with AKI, Adjusted (95% CI): metformin as reference; for Association with AKI, Adjusted (95% CI): multivariate; for Association with AKI compared to control drug metformin, in words: multivariate analysis; for Total endpoint (AKI events): primary plus secondary endpoint; for Events at secondary end (AKI): secondary endpoint, after 90 days of hospital admission; for Events During the 90 days (AKI): primary endpoint, first 90 days, patients above 55 years; for Total Percent (incidence rate of AKI at the end of the study): share of the 4966 total outcomes
[2] = for Cmax / Tmax / AUC / Tmax determined from the drug concentration in kidney and plasma (and liver) / t1/2: mouse; for Cmax / Tmax / AUC / Drug concentration, time course / t1/2: oral gavage, 3mg/kg; for AUC: AUC for 24 hr; for Tmax determined from the drug concentration in kidney and plasma (and liver): tissue not separated; for Drug concentration, time course: normal mice
in vivo = conditions: male, ICR, mouse, po
[3] = Endpoint Diagnosis with 1047 Outcome
[4] = Secondary Diagnosis with 3919 Outcomes

Compound: insulin
Association with AKI, Unadjusted (95% CI) [1, 3]: 2.26 (1.95–2.64)
Association with AKI, Adjusted (95% CI) [1, 3]: 2.36 (1.81–2.87)
Association with AKI, Unadjusted (95% CI) [1, 4]: 2.42 (1.25–2.61)
Association with AKI, Adjusted (95% CI) [1, 4]: 2.73 (2.28–2.90)
Association with AKI compared to control drug metformin, in words [1]: increased rate of AKI; also recorded: higher risk for AKI
Total endpoint (AKI events) [1]: 348
Events at secondary end (AKI) [1]: 290
Cmax ([2]; Kidney): 6574 ng/mL
Tmax ([2]; Kidney): 1 h
AUC ([2]; Kidney): 26,742 ng/mL
Cmax ([2]; Liver): 6087 ng/mL
Tmax ([2]; Liver): 1 h
AUC ([2]; Liver): 19,851 ng/mL
Cmax ([2]; Plasma): 879 ng/mL
Tmax ([2]; Plasma): 1 h
AUC ([2]; Plasma): 2985 ng/mL
Tmax determined from the drug concentration in kidney and plasma (and liver) [2]: 1 h
Drug concentration, time course ([2]; Kidney, 0h): 0
Drug concentration, time course ([2]; Kidney, 3h): 14,200
Drug concentration, time course ([2]; Kidney, 6h): 10,400
Drug concentration, time course ([2]; Kidney, 9h): 6400
Drug concentration, time course ([2]; Kidney, 12h): 3700
Drug concentration, time course ([2]; Kidney, 15h): 500
Drug concentration, time course ([2]; Kidney, 18h): 0
Drug concentration, time course ([2]; Kidney, 21h): 0
Drug concentration, time course ([2]; Kidney, 24h): 0
Drug concentration, time course ([2]; Liver, 0h): 0
Drug concentration, time course ([2]; Liver, 3h): 9400
Drug concentration, time course ([2]; Liver, 6h): 5050
Drug concentration, time course ([2]; Liver, 9h): 2380
Drug concentration, time course ([2]; Liver, 12h): 370
Drug concentration, time course ([2]; Liver, 15h): 0
Drug concentration, time course ([2]; Liver, 18h): 0
Drug concentration, time course ([2]; Liver, 21h): 0
Drug concentration, time course ([2]; Liver, 24h): 0
Drug concentration, time course ([2]; Plasma, 0h): 0
Drug concentration, time course ([2]; Plasma, 3h): 640
Drug concentration, time course ([2]; Plasma, 6h): 450
Drug concentration, time course ([2]; Plasma, 9h): 310
Drug concentration, time course ([2]; Plasma, 12h): 50
Drug concentration, time course ([2]; Plasma, 15h): 0
Drug concentration, time course ([2]; Plasma, 18h): 0
Drug concentration, time course ([2]; Plasma, 21h): 0
Drug concentration, time course ([2]; Plasma, 24h): 0

Compound: CN(C)C(=N)N=C(N)N [Metformin, metformin]
Association with AKI, Unadjusted (95% CI) [1, 3]: 1
Association with AKI, Adjusted (95% CI) [1, 3]: 1
Association with AKI, Unadjusted (95% CI) [1, 4]: 1.0 (Reference)
Association with AKI, Adjusted (95% CI) [1, 4]: 1.0 (Reference)
Events During the 90 days (AKI) [1]: 69
Total endpoint (AKI events) [1]: 330
Events at secondary end (AKI) [1]: 261
Total Percent (incidence rate of AKI at the end of the study) [1]: 6.64%
Tmax (in vivo): 0.5 h
Tmax (in vivo; 3 mg/kg): 0.5 h

Compound: CCOc1ccc(Cc2cc([C@@H]3O[C@H](CO)[C@@H](O)[C@H](O)[C@H]3O)ccc2Cl)cc1 [Dapagliflozin, dapagliflozin]
Association with AKI, Unadjusted (95% CI) [1, 3]: 0.94 (0.71–1.25)
Association with AKI, Adjusted (95% CI) [1, 3]: 0.84 (0.72–1.32)
Association with AKI, Unadjusted (95% CI) [1, 4]: 0.81 (0.63–1.33)
Association with AKI, Adjusted (95% CI) [1, 4]: 0.93 (0.58–1.24)
Events During the 90 days (AKI) [1]: 73
Total endpoint (AKI events) [1]: 298
Events at secondary end (AKI) [1]: 225
Total Percent (incidence rate of AKI at the end of the study) [1]: 6%
Total Percent (incidence rate of AKI at the end of the study) ([1]; listed as dapagliflozin): 6.0%
Tmax (in vivo): 1 h
Tmax (in vivo; 3 mg/kg): 1 h
half-life (in vivo; 3 mg/kg, t1/2): 2.8 h

More lines, main results first:

Cmax ([2]; Kidney): 3765 ng/mL
Tmax ([2]; Kidney): 1 h
t1/2 ([2]; Kidney): 2.4 h
AUC ([2]; Kidney): 12,100 ng/mL
Cmax ([2]; Liver): 3217 ng/mL
Tmax ([2]; Liver): 1 h
t1/2 ([2]; Liver): 2.8 h
AUC ([2]; Liver): 10,100 ng/mL
Cmax ([2]; Plasma): 542 ng/mL
Tmax ([2]; Plasma): 1 h
t1/2 ([2]; Plasma): 2.1 h
AUC ([2]; Plasma): 1432 ng/mL
Tmax determined from the drug concentration in kidney and plasma (and liver) [2]: 1 h
Drug concentration, time course ([2]; Kidney, 0h): 0
Drug concentration, time course ([2]; Kidney, 3h): 5000
Drug concentration, time course ([2]; Kidney, 6h): 4300
Drug concentration, time course ([2]; Kidney, 9h): 900
Drug concentration, time course ([2]; Kidney, 12h): 300
Drug concentration, time course ([2]; Kidney, 15h): 0
Drug concentration, time course ([2]; Kidney, 18h): 0
Drug concentration, time course ([2]; Kidney, 21h): 0
Drug concentration, time course ([2]; Kidney, 24h): 0
Drug concentration, time course ([2]; Liver, 0h): 0
Drug concentration, time course ([2]; Liver, 3h): 4700
Drug concentration, time course ([2]; Liver, 6h): 3900
Drug concentration, time course ([2]; Liver, 9h): 600
Drug concentration, time course ([2]; Liver, 12h): 100
Drug concentration, time course ([2]; Liver, 15h): 0
Drug concentration, time course ([2]; Liver, 18h): 0
Drug concentration, time course ([2]; Liver, 21h): 0
Drug concentration, time course ([2]; Liver, 24h): 0
Drug concentration, time course ([2]; Plasma, 0h): 0
Drug concentration, time course ([2]; Plasma, 3h): 500
Drug concentration, time course ([2]; Plasma, 6h): 300
Drug concentration, time course ([2]; Plasma, 9h): 50
Drug concentration, time course ([2]; Plasma, 12h): 0
Drug concentration, time course ([2]; Plasma, 15h): 0
Drug concentration, time course ([2]; Plasma, 18h): 0
Drug concentration, time course ([2]; Plasma, 21h): 0
Drug concentration, time course ([2]; Plasma, 24h): 0
Compound: Cc1ccc([C@@H]2O[C@H](CO)[C@@H](O)[C@H](O)[C@H]2O)cc1Cc1ccc(-c2ccc(F)cc2)s1 [Canagliflozin, canagliflozin]
Association with AKI, Unadjusted (95% CI) [1, 3]: 0.85 (0.67–1.21)
Association with AKI, Adjusted (95% CI) [1, 3]: 1.06 (0.68–1.34)
Association with AKI, Unadjusted (95% CI) [1, 4]: 0.89 (0.61–1.25)
Association with AKI, Adjusted (95% CI) [1, 4]: 1.06 (0.91–1.42)
Events During the 90 days (AKI) [1]: 66
Total endpoint (AKI events) [1]: 267
Events at secondary end (AKI) [1]: 201
Total Percent (incidence rate of AKI at the end of the study) [1]: 5.38%

Drug concentration, time course ([2]; Kidney, 0h): 0
Drug concentration, time course ([2]; Kidney, 3h): 8130
Drug concentration, time course ([2]; Kidney, 6h): 5630
Drug concentration, time course ([2]; Kidney, 9h): 2390
Drug concentration, time course ([2]; Kidney, 12h): 450
Drug concentration, time course ([2]; Kidney, 15h): 30
Drug concentration, time course ([2]; Kidney, 18h): 0
Drug concentration, time course ([2]; Kidney, 21h): 0
Drug concentration, time course ([2]; Kidney, 24h): 0
Drug concentration, time course ([2]; Liver, 0h): 0
Drug concentration, time course ([2]; Liver, 6h): 7460
Drug concentration, time course ([2]; Liver, 9h): 4550
Drug concentration, time course ([2]; Liver, 12h): 1650
Drug concentration, time course ([2]; Liver, 15h): 340
Drug concentration, time course ([2]; Liver, 18h): 80
Drug concentration, time course ([2]; Liver, 21h): 0
Drug concentration, time course ([2]; Liver, 24h): 0
Drug concentration, time course ([2]; Plasma, 0h): 0
Drug concentration, time course ([2]; Plasma, 3h): 360
Drug concentration, time course ([2]; Plasma, 6h): 70
Drug concentration, time course ([2]; Plasma, 9h): 30
Drug concentration, time course ([2]; Plasma, 12h): 0
Drug concentration, time course ([2]; Plasma, 15h): 0
Drug concentration, time course ([2]; Plasma, 18h): 0
Drug concentration, time course ([2]; Plasma, 21h): 0
Drug concentration, time course ([2]; Plasma, 24h): 0
Compound: CC1=C(C(=O)O)N2C(=O)[C@@H](NC(=O)[C@H](N)c3ccccc3)[C@H]2SC1 [Cephalexin, cephalexin]
Association with AKI, Adjusted (95% CI) [1, 3]: 1.52 (1.31–2.16)
Association with AKI, Adjusted (95% CI) [1, 4]: 1.82 (1.31–2.25)
Association with AKI compared to control drug metformin, in words [1]: increased rate of AKI; also recorded: higher risk for AKI
Events During the 90 days (AKI) [1]: 50
Total endpoint (AKI events) [1]: 333
Events at secondary end (AKI) [1]: 283
Total Percent (incidence rate of AKI at the end of the study) [1]: 6.71%
